pIC50: −log10 of the molar value.
Experiments:
Plasmodium falciparum [1] = experiment: Antiplasmodial activity against synchronized ring stage of chloroquine-sensitive Plasmodium falciparum 3D7 infected in human erythrocytes after 48 hrs by SYBR Green 1 dye based fluorescence assay; assay type: functional, organism-based; details: 3D7, 48 h
[2] = Resistance index, ratio of IC50 for synchronized ring stage of chloroquine-resistant Plasmodium falciparum INDO infected in human erythrocytes to IC50 for synchronized ring stage of chloroquine-sensitive Plasmodium falciparum 3D7 infected in human erythrocytes; assay type: functional
[3] = Selectivity index, ratio of IC50 for mouse L929 cells to IC50 for synchronized ring stage of chloroquine-sensitive Plasmodium falciparum 3D7 infected in human erythrocytes; assay type: toxicity, cell-based; details: read-out: Ratio IC50
Plasmodium falciparum [4] = experiment: Antiplasmodial activity against synchronized ring stage of chloroquine-resistant Plasmodium falciparum INDO infected in human erythrocytes after 48 hrs by SYBR Green 1 dye based fluorescence assay; assay type: functional, organism-based
[5] = Selectivity index, ratio of IC50 for human HeLa cells to IC50 for synchronized ring stage of chloroquine-sensitive Plasmodium falciparum 3D7 infected in human erythrocytes; assay type: toxicity, cell-based; details: read-out: Ratio IC50
Plasmodium falciparum [6] = experiment: Antiplasmodial activity against synchronized ring stage of chloroquine-resistant Plasmodium falciparum Dd2 infected in human erythrocytes after 48 hrs by SYBR Green 1 dye based fluorescence assay; assay type: functional, organism-based; details: Dd2, 48 h
[7] = Resistance index, ratio of IC50 for synchronized ring stage of chloroquine-resistant Plasmodium falciparum Dd2 infected in human erythrocytes to IC50 for synchronized ring stage of chloroquine-sensitive Plasmodium falciparum 3D7 infected in human erythrocytes; assay type: functional

C=CCOc1c(OC)cc(/C=C/C(=O)c2ccc(Br)cc2)cc1-c1cc(/C=C/C(=O)c2ccc(Br)cc2)cc(OC)c1OCC=C
pIC50 (Plasmodium falciparum [1]): < 4.30

C=CCOc1c(OC)cc(/C=C/C(=O)c2ccccc2)cc1-c1cc(/C=C/C(=O)c2ccccc2)cc(OC)c1OCC=C
Ratio IC50 [2]: 0.5
selectivity ratio [3]: 7.1
pIC50 (Plasmodium falciparum [4]): 5.46
selectivity ratio [5]: > 28.6
pIC50 (Plasmodium falciparum [1]): 5.15
pIC50 (Plasmodium falciparum [6]): 5.68
Ratio IC50 [7]: 0.3

C=CCOc1ccc(/C=C/C(=O)c2cccc(C(=O)/C=C/c3ccc(OCC=C)c(OCC=C)c3)c2)cc1OCC=C
Ratio IC50 [2]: 0.76
selectivity ratio [3]: > 5.6
pIC50 (Plasmodium falciparum [4]): 4.86
selectivity ratio [5]: > 5.6
pIC50 (Plasmodium falciparum [1]): 4.74
pIC50 (Plasmodium falciparum [6]): 4.72
Ratio IC50 [7]: 1.05

C=CCOc1c(OC)cc(/C=C/C(=O)c2ccc(OCCC)cc2)cc1-c1cc(/C=C/C(=O)c2ccc(OCCC)cc2)cc(OC)c1OCC=C
Ratio IC50 [2]: 8.1
selectivity ratio [3]: > 66.7
pIC50 (Plasmodium falciparum [4]): 4.91
selectivity ratio [5]: > 66.7
pIC50 (Plasmodium falciparum [1]): 5.82
pIC50 (Plasmodium falciparum [6]): 4.94
Ratio IC50 [7]: 7.7

C=CCOc1ccc(C(=O)/C=C/c2cc(OC)c(OCC=C)c(-c3cc(/C=C/C(=O)c4ccc(OCC=C)cc4)cc(OC)c3OCC=C)c2)cc1
Ratio IC50 [2]: >25
selectivity ratio [3]: > 100
pIC50 (Plasmodium falciparum [4]): < 4.30
selectivity ratio [5]: > 100
pIC50 (Plasmodium falciparum [1]): 5.70
pIC50 (Plasmodium falciparum [6]): 4.78
Ratio IC50 [7]: 8.3

C=CCOc1c(OC)cc(/C=C/C(=O)c2cc(OC)c(OC)c(OC)c2)cc1-c1cc(/C=C/C(=O)c2cc(OC)c(OC)c(OC)c2)cc(OC)c1OCC=C
Ratio IC50 [2]: 0.4
selectivity ratio [3]: > 36.4
pIC50 (Plasmodium falciparum [4]): 5.66
selectivity ratio [5]: > 36.4
pIC50 (Plasmodium falciparum [1]): 5.26
pIC50 (Plasmodium falciparum [6]): 5.77
Ratio IC50 [7]: 0.3

C=CCOc1c(OC)cc(/C=C/C(=O)c2cc3ccccc3oc2=O)cc1-c1cc(/C=C/C(=O)c2cc3ccccc3oc2=O)cc(OC)c1OCC=C
pIC50 (Plasmodium falciparum [1]): 4.74

C=CCOc1ccc(/C=C/C(=O)c2cccc(C(=O)/C=C/c3ccc(OCC=C)c(OC)c3)c2)cc1OC
pIC50 (Plasmodium falciparum [1]): < 4.30
